In brackets after ≈: the same amount, converted by molar mass. Activity calls are given as the source filed them. The calls are words filed in the database; no cut-off is given here.
Assays:
[1] = AUC in Sprague-Dawley rat at 5 uM, iv administered as single bolus dose by LC-MS/MS analysis; assay type: ADME, organism-based; details: in vivo
[2] = Half life in Sprague-Dawley rat at 5 uM, iv administered as single bolus dose by LC-MS/MS analysis; assay type: ADME, organism-based; details: in vivo
Listeria monocytogenes [3] = assay: Bactericidal activity against Listeria monocytogenes ATCC 19111 incubated for 20 hrs followed by re-plating on tryptic soy agar plates at 37 degC for 18 hrs by broth microdilution assay; assay type: functional
Staphylococcus aureus [4] = assay: Bactericidal activity against Staphylococcus aureus USA300 NRS384 incubated for 20 hrs followed by re-plating on tryptic soy agar plates at 37 degC for 18 hrs by broth microdilution assay; assay type: functional
[5] = Volume of distribution at steady state in Sprague-Dawley rat at 5 uM, iv administered as single bolus dose by LC-MS/MS analysis; assay type: ADME, organism-based; details: in vivo, read-out: Vdss
[6] = Clearance in Sprague-Dawley rat at 5 uM, iv administered as single bolus dose by LC-MS/MS analysis; assay type: ADME, organism-based; details: in vivo
Caco-2 = assay: Cytotoxicity against human Caco2 cells assessed as effect on cell viability up to 64 ug/ml after 2 hrs by MTS assay; assay type: cell-based; details: caco-2, 2 h
Enterococcus faecalis [7] = assay: Bactericidal activity against vancomycin-resistant Enterococcus faecalis ATCC 51299 incubated for 20 hrs followed by re-plating on tryptic soy agar plates at 37 degC for 18 hrs by broth microdilution assay; assay type: functional
Streptococcus pneumoniae [8] = assay: Antibacterial activity against methicillin-resistant Streptococcus pneumoniae ATCC 700677 after 20 hrs by broth microdilution assay; assay type: functional; details: ATCC 700677, 20 h
Streptococcus pneumoniae [9] = assay: Bactericidal activity against cephalosporin-resistant Streptococcus pneumoniae ATCC 51916 incubated for 20 hrs followed by re-plating on tryptic soy agar plates at 37 degC for 18 hrs by broth microdilution assay; assay type: functional
Staphylococcus aureus [10] = assay: Antibacterial activity against Staphylococcus aureus after 20 hrs by broth microdilution assay; assay type: functional
Staphylococcus aureus [11] = assay: Antibacterial activity against vancomycin-resistant Staphylococcus aureus VRSA10 after 20 hrs by broth microdilution assay; assay type: functional; details: VRSA10, 20 h
[12] = Selectivity index, ratio of compound effect for human Caco2 cells at maximum non-toxic concentration concentration to MIC for cephalosporin-resistant Streptococcus pneumoniae ATCC 51916; assay type: toxicity; details: Caco-2 cells, read-out: Selectivity Index
Listeria monocytogenes [13] = assay: Antibacterial activity against Listeria monocytogenes ATCC 19111 after 20 hrs by broth microdilution assay; assay type: functional; details: ATCC 19111, 20 h
Staphylococcus aureus [14] = assay: Antibacterial activity against methicillin-resistant Staphylococcus aureus NRS385 after 20 hrs by broth microdilution assay; assay type: functional; details: NRS385, 20 h
Staphylococcus aureus [15] = assay: Bactericidal activity against linezolid-resistant Staphylococcus aureus NRS119 incubated for 20 hrs followed by re-plating on tryptic soy agar plates at 37 degC for 18 hrs by broth microdilution assay; assay type: functional
Staphylococcus aureus [16] = assay: Bactericidal activity against methicillin-resistant Staphylococcus aureus NRS386 incubated for 20 hrs followed by re-plating on tryptic soy agar plates at 37 degC for 18 hrs by broth microdilution assay; assay type: functional
[17] = Terminal phase volume of distribution at […] in Sprague-Dawley rat at 5 uM, iv administered as single bolus dose by LC-MS/MS analysis; assay type: ADME, organism-based; details: in vivo, read-out: Vbeta
Staphylococcus aureus [18] = assay: Antibacterial activity against methicillin-resistant Staphylococcus aureus 2658 RCMB after 20 hrs by broth microdilution assay; assay type: functional
Enterococcus faecium [19] = assay: Antibacterial activity against vancomycin-resistant Enterococcus faecium ATCC 700221 after 20 hrs by broth microdilution assay; assay type: functional; details: ATCC 700221, 20 h
Staphylococcus aureus [20] = assay: Bactericidal activity against Staphylococcus aureus USA400 assessed as reduction in colony forming unit at 3 to 6 times MIC treated for 2 hrs followed by re-plating on tryptic soy agar plates at 37 degC for 18 to 20 hrs by broth microdilution assay; assay type: functional; design: scale not given: the % may be the effect or the level left
Staphylococcus aureus [21] = assay: Bactericidal activity against vancomycin-resistant Staphylococcus aureus VRSA12 incubated for 20 hrs followed by re-plating on tryptic soy agar plates at 37 degC for 18 hrs by broth microdilution assay; assay type: functional
[22] = Selectivity index, ratio of compound effect for human Caco2 cells at maximum non-toxic concentration concentration to MIC for methicillin-resistant Staphylococcus epidermidis NRS101; assay type: toxicity; details: Caco-2 cells, read-out: Selectivity Index
[23] = Selectivity index, ratio of compound effect for human Caco2 cells at maximum non-toxic concentration concentration to MIC for vancomycin-resistant Enterococcus faecium ATCC 700221; assay type: toxicity; details: Caco-2 cells, read-out: Selectivity Index
Streptococcus pneumoniae [24] = assay: Bactericidal activity against methicillin-resistant Streptococcus pneumoniae ATCC 700677 incubated for 20 hrs followed by re-plating on tryptic soy agar plates at 37 degC for 18 hrs by broth microdilution assay; assay type: functional
Staphylococcus aureus [25] = assay: Bactericidal activity against vancomycin-resistant Staphylococcus aureus VRSA10 incubated for 20 hrs followed by re-plating on tryptic soy agar plates at 37 degC for 18 hrs by broth microdilution assay; assay type: functional
Streptococcus pneumoniae [26] = assay: Antibacterial activity against cephalosporin-resistant Streptococcus pneumoniae ATCC 51916 after 20 hrs by broth microdilution assay; assay type: functional; details: ATCC 51916, 20 h
Staphylococcus aureus [27] = assay: Antibacterial activity against methicillin-resistant Staphylococcus aureus USA400 NRS123 after 14 passages over 2 weeks by broth microdilution method; assay type: functional, organism-based
Streptococcus pneumoniae [28] = assay: Ratio of MBC to MIC for methicillin-resistant Streptococcus pneumoniae ATCC 700677; assay type: functional
Staphylococcus aureus [29] = assay: Antibacterial activity against methicillin-resistant Staphylococcus aureus NRS386 after 20 hrs by broth microdilution assay; assay type: functional; details: NRS386, 20 h
Enterococcus faecalis [30] = assay: Antibacterial activity against vancomycin-resistant Enterococcus faecalis ATCC 51299 after 20 hrs by broth microdilution assay; assay type: functional; details: ATCC 51299, 20 h
Staphylococcus aureus [31] = assay: Bactericidal activity against methicillin-sensitive Staphylococcus aureus NRS107 incubated for 20 hrs followed by re-plating on tryptic soy agar plates at 37 degC for 18 hrs by broth microdilution assay; assay type: functional
[32] = Selectivity index, ratio of compound effect for human Caco2 cells at maximum non-toxic concentration concentration to MIC for Listeria monocytogenes ATCC 19111; assay type: toxicity; details: Caco-2 cells, read-out: Selectivity Index
Enterococcus faecium [33] = assay: Bactericidal activity against vancomycin-resistant Enterococcus faecium ATCC 700221 incubated for 20 hrs followed by re-plating on tryptic soy agar plates at 37 degC for 18 hrs by broth microdilution assay; assay type: functional
Staphylococcus aureus [34] = assay: Bactericidal activity against methicillin-resistant Staphylococcus aureus NRS385 incubated for 20 hrs followed by re-plating on tryptic soy agar plates at 37 degC for 18 hrs by broth microdilution assay; assay type: functional
[35] = test system: Staphylococcus epidermidis; assay: Antibacterial activity against methicillin-resistant Staphylococcus epidermidis NRS101 after 20 hrs by broth microdilution assay; assay type: functional; details: NRS101, 20 h
Staphylococcus aureus [36] = assay: Antibacterial activity against vancomycin-resistant Staphylococcus aureus VRSA12 after 20 hrs by broth microdilution assay; assay type: functional; details: VRSA12, 20 h
[37] = Selectivity index, ratio of compound effect for human Caco2 cells at maximum non-toxic concentration concentration to MIC for vancomycin-resistant Enterococcus faecalis ATCC 51299; assay type: toxicity; details: Caco-2 cells, read-out: Selectivity Index
Staphylococcus aureus [38] = assay: Antibacterial activity against methicillin-resistant Staphylococcus aureus after 20 hrs by broth microdilution assay; assay type: functional
[39] = Selectivity index, ratio of compound effect for human Caco2 cells at maximum non-toxic concentration concentration to MIC for methicillin-resistant Streptococcus pneumoniae ATCC 700677; assay type: toxicity; details: Caco-2 cells, read-out: Selectivity Index
Staphylococcus aureus [40] = assay: Bactericidal activity against Staphylococcus aureus USA400 NRS123 incubated for 20 hrs followed by re-plating on tryptic soy agar plates at 37 degC for 18 hrs by broth microdilution assay; assay type: functional
[41] = test system: Staphylococcus epidermidis; assay: Bactericidal activity against methicillin-resistant Staphylococcus epidermidis NRS101 incubated for 20 hrs followed by re-plating on tryptic soy agar plates at 37 degC for 18 hrs by broth microdilution assay; assay type: functional
Staphylococcus aureus [42] = assay: Antibacterial activity against methicillin-resistant Staphylococcus aureus USA400 NRS123 after 1 passages over 2 weeks by broth microdilution method; assay type: functional, organism-based

CCCCCCCOc1ccc(-c2nc(C)c(-c3ccnc(NC(=N)N(C)C)n3)s2)cc1
AUC at 5 µM [1]: 1140 ng·h/mL | half-life at 5 µM [2]: 4 h | MBC (Listeria monocytogenes [3]): 4 µg/mL (≈ 8.84 µM) | MBC (Staphylococcus aureus [4]): 4 µg/mL (≈ 8.84 µM) | Vd at 5 µM [5]: 4.36 L | clearance at 5 µM [6]: 29.2 mL/min | Activity (Caco-2): Non-Toxic | MBC (Enterococcus faecalis [7]): 8 µg/mL (≈ 17.7 µM) | MIC (Streptococcus pneumoniae [8]): 4 µg/mL (≈ 8.84 µM) | MBC (Streptococcus pneumoniae [9]): 8 µg/mL (≈ 17.7 µM) | MIC (Staphylococcus aureus [10]): 4 µg/mL (≈ 8.84 µM) | MIC (Staphylococcus aureus [11]): 4 µg/mL (≈ 8.84 µM) | selectivity ratio [12]: 7 to 82 | MIC (Listeria monocytogenes [13]): 4 µg/mL (≈ 8.84 µM) | MIC (Staphylococcus aureus [14]): 8 µg/mL (≈ 17.7 µM) | MBC (Staphylococcus aureus [15]): 8 µg/mL (≈ 17.7 µM) | MBC (Staphylococcus aureus [16]): 4 µg/mL (≈ 8.84 µM) | Vd at 5 µM [17]: 10.4 L | MIC (Staphylococcus aureus [18]): 1.56 µg/mL (≈ 3.45 µM) | MIC (Enterococcus faecium [19]): 8 µg/mL (≈ 17.7 µM) | Activity (Staphylococcus aureus [20]): 100% | MBC (Staphylococcus aureus [21]): 4 µg/mL (≈ 8.84 µM) | selectivity ratio [22]: 7 to 82 | selectivity ratio [23]: 7 to 82 | MBC (Streptococcus pneumoniae [24]): 8 µg/mL (≈ 17.7 µM) | MBC (Staphylococcus aureus [25]): 4 µg/mL (≈ 8.84 µM) | MIC (Streptococcus pneumoniae [26]): 8 µg/mL (≈ 17.7 µM) | Activity (Staphylococcus aureus [27]): Active | Ratio (Streptococcus pneumoniae [28]): 1 | MIC (Staphylococcus aureus [29]): 4 µg/mL (≈ 8.84 µM) | MIC (Enterococcus faecalis [30]): 8 µg/mL (≈ 17.7 µM) | MBC (Staphylococcus aureus [31]): 4 µg/mL (≈ 8.84 µM) | selectivity ratio [32]: 7 to 82 | MBC (Enterococcus faecium [33]): 8 µg/mL (≈ 17.7 µM) | MBC (Staphylococcus aureus [34]): 8 µg/mL (≈ 17.7 µM) | MIC [35]: 4 µg/mL (≈ 8.84 µM) | MIC (Staphylococcus aureus [36]): 4 µg/mL (≈ 8.84 µM) | selectivity ratio [37]: 7 to 82 | MIC (Staphylococcus aureus [38]): 4 to 8 µg/mL (≈ 8.84 to 17.7 µM) | selectivity ratio [39]: 7 to 82 | MBC (Staphylococcus aureus [40]): 8 µg/mL (≈ 17.7 µM) | MBC [41]: 4 µg/mL (≈ 8.84 µM)

CO[C@H]1/C=C/O[C@@]2(C)Oc3c(C)c(O)c4c(O)c(c(/C=N/N5CCN(C)CC5)c(O)c4c3C2=O)NC(=O)/C(C)=C\C=C\[C@H](C)[C@H](O)[C@@H](C)[C@@H](O)[C@@H](C)[C@H](OC(C)=O)[C@@H]1C
Activity (Staphylococcus aureus [42]): inactive

CCCCCCCOc1ccc(-c2nc(C)c(-c3ccnc(N4CC(O)C4)n3)s2)cc1
MIC (Staphylococcus aureus [18]): 6.25 µg/mL (≈ 14.2 µM)

CCCCCCCCOc1ccc(-c2nc(C)c(-c3ccnc(N4CC(O)C4)n3)s2)cc1
MIC (Staphylococcus aureus [18]): 6.25 µg/mL (≈ 13.8 µM)

CCCCCCCOc1ccc(-c2nc(C)c(-c3ccnc(N)n3)s2)cc1
MIC (Staphylococcus aureus [18]): > 50 µg/mL

Reference: ChEMBL document CHEMBL4152249, “Alkoxyphenylthiazoles with broad-spectrum activity against multidrug-resistant gram-positive bacterial pathogens” (Eur J Med Chem, 2018)
